Experimental findings from patent US8530460B2, “Azetidine derivatives” (Boehringer Ingelheim International GmbH, priority 2011, dated 2013) are described below.

The target in the assay is human ACC2 (Homo sapiens (Human), UniProt O00763). Kind of assay: ACC2 assay (spectrophotometric 384 well assay, NADH-linked coupled lactate dehydrogenase/pyruvate kinase). Type of assay: biochemical. The settings on record: hACC2 construct lacking 128 N-terminal amino acids; 25° C., 340 nm, 15 minutes.
Sequence of human ACC2 (O00763 129-2458): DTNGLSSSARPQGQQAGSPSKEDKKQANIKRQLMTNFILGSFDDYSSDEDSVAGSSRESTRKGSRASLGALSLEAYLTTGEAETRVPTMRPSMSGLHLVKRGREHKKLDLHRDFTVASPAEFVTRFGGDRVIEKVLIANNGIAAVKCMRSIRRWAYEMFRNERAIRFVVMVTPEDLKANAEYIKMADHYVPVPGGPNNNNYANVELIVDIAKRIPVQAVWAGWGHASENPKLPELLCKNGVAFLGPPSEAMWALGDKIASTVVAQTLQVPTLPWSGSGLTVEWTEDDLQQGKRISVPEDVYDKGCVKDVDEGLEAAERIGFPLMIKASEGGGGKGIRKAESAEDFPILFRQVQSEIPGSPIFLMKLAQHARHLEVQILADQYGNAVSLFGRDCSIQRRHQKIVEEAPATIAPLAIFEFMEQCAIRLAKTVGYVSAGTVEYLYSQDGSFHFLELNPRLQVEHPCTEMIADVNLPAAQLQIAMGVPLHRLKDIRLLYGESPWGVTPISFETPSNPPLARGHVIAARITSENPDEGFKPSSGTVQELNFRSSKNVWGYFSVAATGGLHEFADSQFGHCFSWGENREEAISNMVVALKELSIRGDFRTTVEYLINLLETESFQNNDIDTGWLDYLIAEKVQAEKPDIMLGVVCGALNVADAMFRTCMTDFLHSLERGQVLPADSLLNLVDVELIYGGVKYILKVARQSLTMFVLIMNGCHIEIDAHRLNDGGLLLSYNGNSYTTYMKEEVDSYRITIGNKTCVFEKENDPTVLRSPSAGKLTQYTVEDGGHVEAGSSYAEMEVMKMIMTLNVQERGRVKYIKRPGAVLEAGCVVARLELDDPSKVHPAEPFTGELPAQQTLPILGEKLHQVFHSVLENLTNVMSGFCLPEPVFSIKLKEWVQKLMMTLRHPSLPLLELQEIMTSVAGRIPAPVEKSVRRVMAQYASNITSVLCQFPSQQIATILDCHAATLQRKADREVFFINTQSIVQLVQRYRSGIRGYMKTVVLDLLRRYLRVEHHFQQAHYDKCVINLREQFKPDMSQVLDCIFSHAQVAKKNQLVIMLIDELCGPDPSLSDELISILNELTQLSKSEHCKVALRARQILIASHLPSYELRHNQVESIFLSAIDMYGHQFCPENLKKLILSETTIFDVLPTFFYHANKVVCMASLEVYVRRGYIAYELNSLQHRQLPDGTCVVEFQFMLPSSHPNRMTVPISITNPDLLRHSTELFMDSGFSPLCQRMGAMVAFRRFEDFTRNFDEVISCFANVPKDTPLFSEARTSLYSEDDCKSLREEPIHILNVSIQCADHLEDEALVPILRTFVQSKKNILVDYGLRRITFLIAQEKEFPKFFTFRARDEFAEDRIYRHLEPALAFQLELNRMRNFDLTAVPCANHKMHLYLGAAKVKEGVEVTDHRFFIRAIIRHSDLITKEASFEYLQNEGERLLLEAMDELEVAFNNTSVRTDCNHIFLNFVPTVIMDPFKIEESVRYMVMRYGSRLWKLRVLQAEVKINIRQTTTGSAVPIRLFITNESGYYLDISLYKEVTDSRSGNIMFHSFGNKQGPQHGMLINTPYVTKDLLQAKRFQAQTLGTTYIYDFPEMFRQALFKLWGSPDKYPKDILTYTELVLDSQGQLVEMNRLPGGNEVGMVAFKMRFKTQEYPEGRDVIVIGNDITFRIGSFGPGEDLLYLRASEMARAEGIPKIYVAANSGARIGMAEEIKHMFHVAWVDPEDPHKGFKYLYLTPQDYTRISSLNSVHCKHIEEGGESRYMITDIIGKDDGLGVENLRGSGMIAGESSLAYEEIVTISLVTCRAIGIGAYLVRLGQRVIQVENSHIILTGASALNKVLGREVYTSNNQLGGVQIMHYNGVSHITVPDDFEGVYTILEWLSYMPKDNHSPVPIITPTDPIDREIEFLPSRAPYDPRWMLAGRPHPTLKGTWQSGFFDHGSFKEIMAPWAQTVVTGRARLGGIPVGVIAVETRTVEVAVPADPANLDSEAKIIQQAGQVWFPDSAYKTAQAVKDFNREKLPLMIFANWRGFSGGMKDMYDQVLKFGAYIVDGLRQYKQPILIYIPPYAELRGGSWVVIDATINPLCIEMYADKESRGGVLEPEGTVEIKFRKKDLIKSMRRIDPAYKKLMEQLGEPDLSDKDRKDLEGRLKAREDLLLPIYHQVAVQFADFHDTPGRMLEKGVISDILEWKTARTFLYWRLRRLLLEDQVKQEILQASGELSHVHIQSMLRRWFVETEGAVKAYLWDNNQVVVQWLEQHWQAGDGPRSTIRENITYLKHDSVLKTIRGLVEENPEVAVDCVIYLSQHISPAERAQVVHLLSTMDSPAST

For orientation: IC50 means the concentration that inhibits the measured activity by half. Low readings indicate greater potency, high ones weaker potency. `CCOc1ccc(N2CC(Oc3ccc([C@H](C)NC(=O)C4(C#N)CC4)cc3)C2)cc1` [Example 8.12] yielded an IC50 of 1000 nM. On to `C=CCC(=O)N[C@@H](C)c1ccc(OC2CN(c3ccc(OCC)cc3)C2)cc1` [Example 8.13], for which half-maximal inhibition (IC50) was put at 450 nM.

`CCOc1ccc(N2CC(Oc3ccc([C@H](C)NC(=O)c4ccnnc4)cc3)C2)cc1` [Example 8.14] registered an IC50 of 2250 nM. Take `CCOc1ccc(N2CC(Oc3ccc([C@H](C)NC(=O)CC4CC4)cc3)C2)cc1` [Example 8.15]: the IC50 stood at 1740 nM. For the compound `CCOc1ccc(N2CC(Oc3ccc([C@H](C)NC(=O)C(C)C)cc3)C2)cc1` [Example 8.16], the IC50 stood at 700 nM. `CCOc1ccc(N2CC(Oc3ccc([C@H](C)NC(=O)CO)cc3)C2)cc1` [Example 8.17] came in with an IC50 of 2790 nM. The compound `CCOc1ccc(N2CC(Oc3ccc([C@H](C)NC(=O)CC(F)(F)F)cc3)C2)cc1` [Example 8.18] gave an IC50 of 740 nM. In turn, `CCOc1ccc(N2CC(Oc3ccc([C@H](C)NC(=O)C4CC(F)C4)cc3)C2)cc1` (stereo partly shown) [Example 8.19] displayed an IC50 of 690 nM. For the compound `CCOc1ccc(N2CC(Oc3ccc([C@H](C)NC(=O)C4CCC4)cc3)C2)cc1` [Example 8.20], the IC50 came out at 480 nM. In the case of `CCOc1ccc(N2CC(Oc3ccc([C@H](C)NC(=O)C4(C(F)(F)F)CC4)cc3)C2)cc1` [Example 8.21], inhibition was half-maximal at 300 nM (IC50). In turn, `CCOc1ccc(N2CC(Oc3ccc([C@H](C)NC(=O)c4nc(C)sc4C)cc3)C2)cc1` [Example 8.22] gave an IC50 of 1870 nM. The value for `CCOc1ccc(N2CC(Oc3ccc([C@H](C)NC(=O)CN(C)C)cc3)C2)cc1` [Example 8.23] was 5790 nM; that for `CCOc1ccc(N2CC(Oc3ccc([C@H](C)NC(=O)Cc4cccnc4)cc3)C2)cc1` [Example 8.24] was 3940 nM. For the compound `CCOc1ccc(N2CC(Oc3ccc([C@H](C)NC(=O)c4ccnc(NC(C)=O)c4)cc3)C2)cc1` [Example 8.25], the IC50 was 530 nM. With `CCOc1ccc(N2CC(Oc3ccc([C@H](C)NC(=O)CCOC)cc3)C2)cc1` [Example 8.26], the IC50 worked out at 2780 nM. Compound `CCOc1ccc(N2CC(Oc3ccc([C@H](C)NC(=O)C4CC(C)C4)cc3)C2)cc1` (stereo partly shown) [Example 8.27] had an IC50 of 760 nM. The figure for `CCOc1ccc(N2CC(Oc3ccc([C@H](C)NC(=O)c4sc(NC(C)=O)nc4C)cc3)C2)cc1` [Example 8.28] is 170 nM; for `CCOc1ccc(N2CC(Oc3ccc([C@H](C)NC(=O)CC)cc3)C2)cc1` [Example 8.29] it is 410 nM. `CCOc1ccc(N2CC(Oc3ccc([C@H](C)NC(=O)CF)cc3)C2)cc1` [Example 8.30] showed an IC50 of 670 nM. The figure for `CCOc1ccc(N2CC(Oc3ccc([C@H](C)NC(=O)c4ccno4)cc3)C2)cc1` [Example 8.31] is 1090 nM. In the case of `CCOc1ccc(N2CC(Oc3ccc([C@H](C)NC(=O)c4cnc(NC(C)=O)s4)cc3)C2)cc1` [Example 8.32], the IC50 was 550 nM. Consider `CCOc1ccc(N2CC(Oc3ccc([C@H](C)NC(=O)c4cnco4)cc3)C2)cc1` [Example 8.33], for which the concentration for half-maximal inhibition (IC50) amounted to 190 nM. In turn, `CCOc1ccc(N2CC(Oc3ccc([C@H](C)NC(=O)c4ccns4)cc3)C2)cc1` [Example 8.34] displayed an IC50 of 810 nM. Consider `CCOc1ccc(N2CC(Oc3ccc([C@H](C)NC(=O)c4csc(NC(C)=O)n4)cc3)C2)cc1` [Example 8.35], for which the IC50 was found to be 3160 nM. The value for `CCOc1ccc(N2CC(Oc3ccc([C@H](C)NC(=O)C(C)(C)OC)cc3)C2)cc1` [Example 8.36] was 3040 nM; that for `CCOc1ccc(N2CC(Oc3ccc([C@H](C)NC(=O)c4ccc(C)o4)cc3)C2)cc1` [Example 8.37] was 2060 nM; that for `CCOc1ccc(N2CC(Oc3ccc([C@H](C)NC(=O)C4CNC(=O)C4)cc3)C2)cc1` (stereo partly shown) [Example 8.39] was 5200 nM. Consider `CCOc1ccc(N2CC(Oc3ccc([C@H](C)NC(=O)C4CC=CC4)cc3)C2)cc1` [Example 8.40], for which the IC50 was found to be 350 nM. Turning to `CCOc1ccc(N2CC(Oc3ccc([C@H](C)NC(=O)c4cncs4)cc3)C2)cc1` [Example 8.41], it took 510 nM to reach half-maximal inhibition (IC50). `CCCC(=O)N[C@@H](C)c1ccc(OC2CN(c3ccc(OCC)cc3)C2)cc1` [Example 8.42] had an IC50 of 1690 nM. On to `CCOc1ccc(N2CC(Oc3ccc([C@H](C)NC(=O)CCCNC(C)=O)cc3)C2)cc1` [Example 8.43], for which it took 2340 nM to reach half-maximal inhibition (IC50). The figure for `CCOc1ccc(N2CC(Oc3ccc([C@H](C)NC(=O)C4CC(OC)C4)cc3)C2)cc1` (stereo partly shown) [Example 8.44] is 930 nM; for `CCOc1ccc(N2CC(Oc3ccc([C@H](C)NC(=O)c4cccnc4)cc3)C2)cc1` [Example 8.45] it is 2310 nM; for `CCOc1ccc(N2CC(Oc3ccc([C@H](C)NC(=O)C4CCOC4)cc3)C2)cc1` (stereo partly shown) [Example 8.46] it is 1190 nM.

Consider `CCOc1ccc(N2CC(Oc3ccc([C@H](C)NC(=O)COC)cc3)C2)cc1` [Example 8.47], for which 1910 nM corresponded to half-maximal inhibition (IC50). The value for `CCC(=O)N[C@@H](C)c1ccc(OC2CN(c3ncc(C4CC4)cn3)C2)cc1` [Example 9, (S)—N-(1-(4-(1-(5-Cyclopropylpyrimidin-2-yl)azetidin-3-yloxy)phenyl)ethyl)-propionamide] was 1100 nM; that for `C[C@H](NC(=O)N(C)C)c1ccc(OC2CN(c3ncc(C4CC4)cn3)C2)cc1` [Example 10.1] was 340 nM.

Turning to `CCNC(=O)N[C@@H](C)c1ccc(OC2CN(c3ncc(C4CC4)cn3)C2)cc1` [Example 10.2], the IC50 was found to be 1170 nM.

`CCOc1ccc(N2CC(Oc3ccc([C@H](C)NC(=O)N(C)C)cc3)C2)cc1` [Example 10.3] showed an IC50 of 670 nM. The value for `CCNC(=O)N[C@@H](C)c1ccc(OC2CN(c3ccc(OCC)cc3)C2)cc1` [Example 10.4] was 440 nM. The value for `CCCOc1ccc(N2CC(Oc3ccc([C@H](C)NC(=O)N(C)C)cc3)C2)c(OC)c1` [Example 10.5] was 480 nM; that for `COC(=O)N[C@@H](C)c1ccc(OC2CN(c3ncc(C4CC4)cn3)C2)cc1` [Example 10.6] was 420 nM.

In the case of `CCOc1ccc(N2CC(Oc3ccc([C@H](C)NC(=O)OC)cc3)C2)cc1` [Example 10.7], 230 nM corresponded to half-maximal inhibition (IC50). For `CCCOc1cc(N2CC(Oc3ccc([C@H](C)NC(C)=O)cc3)C2)ncn1` [Example 11.1, (S)—N-(1-(4-(1-(6-Propoxypyrimidin-4-yl)azetidin-3-yloxy)phenyl)ethyl)acetamide], it took 6010 nM to reach half-maximal inhibition (IC50). For `CC(=O)N[C@@H](C)c1ccc(OC2CN(c3cc(OC(C)C)ncn3)C2)cc1` [Example 11.2], the IC50 turned out to be 10600 nM.

In the case of `CCOc1cc(N2CC(Oc3ccc([C@H](C)NC(C)=O)cc3)C2)ncn1` [Example 11.3], the IC50 was determined as 11800 nM. `CC(=O)N[C@@H](C)c1ccc(OC2CN(c3cc(OCC4CC4)ncn3)C2)cc1` [Example 11.4] yielded an IC50 of 2390 nM. As for `CC(=O)N[C@@H](C)c1ccc(OC2CN(c3cc(OC4CCC4)ncn3)C2)cc1` [Example 11.5], inhibition was half-maximal at 3200 nM (IC50). The figure for `CCCOc1nccc(N2CC(Oc3ccc([C@H](C)NC(C)=O)cc3)C2)n1` [Example 11.6] is 8280 nM; for `CC(=O)N[C@@H](C)c1ccc(OC2CN(c3cc(N(C)CC4CC4)ncn3)C2)cc1` [Example 12.1] it is 4120 nM; for `CC(=O)N[C@@H](C)c1ccc(OC2CN(c3ccnc(N(C)CC4CC4)n3)C2)cc1` [Example 12.2] it is 700 nM. Consider `CC(=O)NC(C)c1ccc(OC2CN(c3ccc(OCC4CC4)cc3)C2)c(F)c1` (stereo not shown) [Example 13, N-(1-(4-(1-(4-(cyclopropylmethoxy)phenyl)azetidin-3-yloxy)-3-fluorophenyl)ethyl)-acetamide], for which the IC50 was 100 nM.
